In BigSolDB 2.1:

NC(=O)N/N=C/c1ccc([N+](=O)[O-])o1
solubility (mole fraction)
Settings	278.15 K	283.15 K	288.15 K	293.15 K	298.15 K	303.15 K	308.15 K	313.15 K	318.15 K	323.15 K
in DMSO	–	–	–	0.0448	0.0469	0.0493	0.053	0.0577	0.0636	0.0709
in NMP	0.0317	0.0354	0.0396	0.0457	0.0522	0.0591	0.0662	0.075	0.0853	0.0985
in ethanol	6.72e-05	8.38e-05	0.000102	0.000123	0.000149	0.000178	0.000213	0.000258	0.000303	0.000364
in isopropanol	6.89e-05	8.99e-05	0.000117	0.000138	0.000175	0.000223	0.00027	0.000331	0.00039	0.000484
in water	1.32e-05	1.66e-05	1.96e-05	2.46e-05	2.98e-05	3.66e-05	4.5e-05	5.75e-05	6.84e-05	8.47e-05
